Experimental data: US20240083892A1 (BISICHEM CO., LTD., priority 2021, published 2024)
pIC50: −log10 of the molar value.

How the values were obtained:
RIPK1 [1] = target: T1, RIPK1 (Homo sapiens, UniProt Q13546); assay: Cell-based necroptosis assay for RIPK1 activity (cell viability by CCK-8); conditions: HT-29 cells; Z-VAD-FMK 20 μM, human TNFα 10 ng/ml, SM-164 100 nM; 24 h; read-out: Cell-base RIPK1 activity: Necroptosis
T1 construct: endogenous in cells; host or cells: HT-29 (KCLB 30038)
T1 sequence (Q13546 1-671): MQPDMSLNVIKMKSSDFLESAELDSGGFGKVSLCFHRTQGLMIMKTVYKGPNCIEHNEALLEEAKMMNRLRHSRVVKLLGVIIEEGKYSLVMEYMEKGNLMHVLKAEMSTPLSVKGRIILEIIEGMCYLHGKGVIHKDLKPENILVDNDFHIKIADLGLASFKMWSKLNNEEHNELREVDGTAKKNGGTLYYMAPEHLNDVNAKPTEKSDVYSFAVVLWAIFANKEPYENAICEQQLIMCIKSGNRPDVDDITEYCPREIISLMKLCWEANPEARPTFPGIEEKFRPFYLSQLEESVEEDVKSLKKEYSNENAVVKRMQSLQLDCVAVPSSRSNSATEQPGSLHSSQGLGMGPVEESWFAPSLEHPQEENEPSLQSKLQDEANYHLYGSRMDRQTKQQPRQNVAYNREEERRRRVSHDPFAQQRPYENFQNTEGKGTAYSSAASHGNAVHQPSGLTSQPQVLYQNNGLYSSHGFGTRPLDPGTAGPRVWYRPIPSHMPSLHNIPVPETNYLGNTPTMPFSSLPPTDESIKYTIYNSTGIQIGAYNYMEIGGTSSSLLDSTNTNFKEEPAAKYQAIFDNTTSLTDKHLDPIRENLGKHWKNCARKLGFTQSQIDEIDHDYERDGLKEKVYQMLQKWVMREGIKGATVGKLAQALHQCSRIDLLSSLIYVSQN
Procedure: (§1) Human colon carcinoma cell HT-29 (KCLB 30038), BV2 mouse microglial cell (cell was a kind gift from Dr. Nak-Yun Sung, Senior researcher at Korea Prime Pharmacy CO., LTD.) and human microglial cell HMC3 (ATCC® CRL-3304™). HT-29 cell was grown in Roswell Park Memorial Institute (RPMI) 1640, BV2 cell was grown in Dulbecco's Modified Eagle's Medium (DMEM) and HMC3 cell was grown in Minimum Essential Media Eagle (MEM) supplemented with 10% fetal bovine serum and 1% mixture of penicillin and streptomycin (Gibco). Cells were maintained at 37° C. in a humidified 5% CO2 atmosphere.
To measure the activity of RIPK1 inhibitor in necroptotic cells, HT-29 cells were treated by control DMSO, human TNFα (Peprotech, Rocky Hill, USA), SM-164 (Biovision, California, USA) and a pan-caspase inhibitor Z-VAD-FMK (Invivogen, San Diego, USA). Cells were pretreated with Z-VAD-FMK 20 μM. After 30 min, human TNFα 10 ng/ml, SM-164 100 nM and RIPK1 Inhibitor (0.0001, 0.001, 0.01, 0.02, 0.05, 0.1, 1, 10 uM) were treated for 24 h. Cell viability was measured by Cell Counting Kit 8 (CCK-8) (Dong-in, Seoul, Korea).

RIPK1 [2] = target: T1, RIPK1; assay: Immunoblotting of TNFα induced phospho-RIPK1 (ser 166) levels; type: cell-based; conditions: HMC3 cells; Z-VAD-FMK, human TNFα 20 ng/ml, SM-164 100 nM; 7 h, serum free media; read-out: Cell-base RIPK1 activity: phspho-RIPK1 (Ser166)
Procedure: as §1
Biological activity of the compounds of RIPK1 inhibitor was determined by measuring their ability to inhibitor TNFα induced phospho-RIPK1 (ser 166) levels, phospho-RIPK3 levels, phospho-MLKL levels in HMC3 cells. Cells were pretreated with Z-VAD-FMK […]. After 30 min, human TNFα 20 ng/ml, SM-164 100 nM and RIPK1 inhibitor (0.1, 1, 10 nM) were treated for 7 h under serum free media. Cells were lysed with cold lysis buffer containing 25 mM HEPES pH 7.6, […] NaCl, 1% NP40, 1% sodium deoxycholate, 0.1% SDS, and protease inhibitor mixture (Bimake, Houston, USA) using sonicators. The cells were centrifuged at 15,000 rpm, 4° C. for 5 min. After protein concentration of the lysates (supernatants) was quantified using BCA assay (Thermo Fisher Scientific, Waltham, USA), lysates were mixed with LDS sample buffer and heating at […] for 10 min. (Invitrogen, California, USA). […] The membranes are placed in an image analyzer (Imagequant, LAS 500, GE Healthcare), connected to a computer which allows the image generation (software Image reader LAS 500).

pIC50 (RIPK1 [2]) | Structure (SMILES) | pIC50 (RIPK1 [1])
> 8.00 | CN1C(=O)[C@@H](NC(=O)n2cc(Cc3cccc(F)c3)cn2)COc2ccc(O[C@H]3CC[C@@H](O)CC3)cc21 [Example 34, 4-(3-fluorobenzyl)-N—((S)-7-(((1s,4R)-4-hydroxycyclohexyl)oxy)-5-methyl-4-oxo-2,3,4,5-tetrahydrobenzo[b][1,4]oxazepin-3-yl)-1H-pyrazole-1-carboxamide] | > 8.00
> 8.00 | CN1C(=O)[C@@H](NC(=O)n2cc(Cc3cccc(F)c3)cn2)COc2ccc(OCC(C)(C)O)cc21 [Example 20, (S)-4-(3-fluorobenzyl)-N-(7-(2-hydroxy-2-methylpropoxy)-5-methyl-4-oxo-2,3,4,5-tetrahydrobenzo[b][1,4]oxazepin-3-yl)-1H-pyrazole-1-carboxamide] | > 8.00
> 8.00 | CN1C(=O)[C@@H](NC(=O)n2cc(Cc3cccc(F)c3)cn2)COc2ccc(OCc3ccc(F)cc3)cc21 [Example 57, (S)-4-(3-fluorobenzyl)-N-(7-((4-fluorobenzyl)oxy)-5-methyl-4-oxo-2,3,4,5-tetrahydrobenzo[b][1,4]oxazepin-3-yl)-1H-pyrazole-1-carboxamide] | > 8.00
> 8.00 | CN1C(=O)[C@@H](NC(=O)n2cc(Cc3cccc(F)c3)cn2)COc2ccc(OCC(=O)N3CCCCC3)cc21 [Example 36, (S)-4-(3-fluorobenzyl)-N-(5-methyl-4-oxo-7-(2-oxo-2-(piperidin-1-yl)ethoxy)-2,3,4,5-tetrahydrobenzo[b][1,4]oxazepin-3-yl)-1H-pyrazole-1-carboxamide] | > 8.00
> 8.00 | CN1C(=O)[C@@H](NC(=O)n2cc(Cc3cccc(F)c3)cn2)COc2ccc(OCC(=O)N3CC(C)(O)C3)cc21 [Example 49, (S)-4-(3-fluorobenzyl)-N-(7-(2-(3-hydroxy-3-methylazetidin-1-yl)-2-oxoethoxy)-5-methyl-4-oxo-2,3,4,5-tetrahydrobenzo[b][1,4]oxazepin-3-yl)-1H-pyrazole-1-carboxamide] | > 8.00
> 8.00 | CN1C(=O)[C@@H](NC(=O)n2cc(Cc3cccc(F)c3)cn2)COc2ccc(OCC(=O)N3CC(O)C3)cc21 [Example 50, (S)-4-(3-fluorobenzyl)-N-(7-(2-(3-hydroxyazetidin-1-yl)-2-oxoethoxy)-5-methyl-4-oxo-2,3,4,5-tetrahydrobenzo[b][1,4]oxazepin-3-yl)-1H-pyrazole-1-carboxamide] | > 8.00
> 8.00 | CN1C(=O)[C@@H](NC(=O)n2cc(Cc3cccc(F)c3)cn2)COc2ccc(OCC(O)c3ccccn3)cc21 (stereo partly drawn) [Example 69, 4-(3-fluorobenzyl)-N-((3S)-7-(2-hydroxy-2-(pyridin-2-yl)ethoxy)-5-methyl-4-oxo-2,3,4,5-tetrahydrobenzo[b][1,4]oxazepin-3-yl)-1H-pyrazole-1-carboxamide] | > 8.00
> 8.00 | CN1C(=O)[C@@H](NC(=O)n2cc(Cc3cccc(F)c3)cn2)COc2ccc(OCc3ccccc3)cc21 [Example 56, (S)—N-(7-(benzyloxy)-5-methyl-4-oxo-2,3,4,5-tetrahydrobenzo[b][1,4]oxazepin-3-yl)-4-(3-fluorobenzyl)-1H-pyrazole-1-carboxamide] | > 8.00
> 8.00 | COC(=O)c1csc(COc2ccc3c(c2)N(C)C(=O)[C@@H](NC(=O)n2cc(Cc4cccc(F)c4)cn2)CO3)n1 [Example 65, Methyl (S)-2-(((3-(4-(3-fluorobenzyl)-1H-pyrazole-1-carboxamido)-5-methyl-4-oxo-2,3,4,5-tetrahydrobenzo[b][1,4]oxazepin-7-yl)oxy)methyl)thiazole-4-carboxylate] | > 8.00
> 8.00 | CN1C(=O)[C@@H](NC(=O)n2cc(Cc3cccc(F)c3)cn2)COc2ccc(OCC#CC3(O)CCCCC3)cc21 [Example 23, (S)-4-(3-fluorobenzyl)-N-(7-((3-(1-hydroxycyclohexyl)prop-2-yn-1-yl)oxy)-5-methyl-4-oxo-2,3,4,5-tetrahydrobenzo[b][1,4]oxazepin-3-yl)-1H-pyrazole-1-carboxamide] | > 8.00
> 8.00 | CN(Cc1ccncc1)C(=O)c1ccc2c(c1)N(C)C(=O)[C@@H](NC(=O)n1cc(Cc3cccc(F)c3)cn1)CO2 [Example 11] | > 8.00
> 8.00 | CN1C(=O)[C@@H](NC(=O)n2cc(Cc3cccc(F)c3)cn2)COc2ccc(OCC(=O)NC3CC3)cc21 [Example 51, (S)—N-(7-(2-(cyclopropylamino)-2-oxoethoxy)-5-methyl-4-oxo-2,3,4,5-tetrahydrobenzo[b][1,4]oxazepin-3-yl)-4-(3-fluorobenzyl)-1H-pyrazole-1-carboxamide] | > 8.00
> 8.00 | CN1C(=O)[C@@H](NC(=O)n2cc(Cc3cccc(F)c3)cn2)COc2ccc(OCC(=O)N3CCC(C)(C)CC3)cc21 [Example 37, (S)—N-(7-(2-(4,4-dimethylpiperidin-1-yl)-2-oxoethoxy)-5-methyl-4-oxo-2,3,4,5-tetrahydrobenzo[b][1,4]oxazepin-3-yl)-4-(3-fluorobenzyl)-1H-pyrazole-1-carboxamide] | > 8.00
> 8.00 | CN1C(=O)[C@@H](NC(=O)n2cc(Cc3cccc(F)c3)cn2)COc2ccc(OCC(=O)N3CCC(C(C)(C)O)C3)cc21 (stereo partly drawn) [Example 48, 4-(3-fluorobenzyl)-N-((3S)-7-(2-(3-(2-hydroxypropan-2-yl)pyrrolidin-1-yl)-2-oxoethoxy)-5-methyl-4-oxo-2,3,4,5-tetrahydrobenzo[b][1,4]oxazepin-3-yl)-1H-pyrazole-1-carboxamide] | > 8.00
> 8.00 | CN1C(=O)[C@@H](NC(=O)n2cc(Cc3cccc(F)c3)cn2)COc2ccc(OC3CCC(C)(C)CC3)cc21 [Example 31, (S)—N-(7-((4,4-dimethylcyclohexyl)oxy)-5-methyl-4-oxo-2,3,4,5-tetrahydrobenzo[b][1,4]oxazepin-3-yl)-4-(3-fluorobenzyl)-1H-pyrazole-1-carboxamide] | > 8.00
> 8.00 | CN1C(=O)[C@@H](NC(=O)n2cc(Cc3cccc(F)c3)cn2)COc2ccc(O[C@H]3CC[C@H](O)CC3)cc21 [Example 35, 4-(3-fluorobenzyl)-N—((S)-7-(((1r,4S)-4-hydroxycyclohexyl)oxy)-5-methyl-4-oxo-2,3,4,5-tetrahydrobenzo[b][1,4]oxazepin-3-yl)-1H-pyrazole-1-carboxamide] | > 8.00
> 8.00 | CN1C(=O)[C@@H](NC(=O)n2cc(Cc3cccc(F)c3)cn2)COc2ccc(OCC(=O)N3CCC(C)(O)CC3)cc21 [Example 41, (S)-4-(3-fluorobenzyl)-N-(7-(2-(4-hydroxy-4-methylpiperidin-1-yl)-2-oxoethoxy)-5-methyl-4-oxo-2,3,4,5-tetrahydrobenzo[b][1,4]oxazepin-3-yl)-1H-pyrazole-1-carboxamide] | > 8.00

Structure (SMILES) | pIC50 (RIPK1 [2]) | pIC50 (RIPK1 [1])
CN1C(=O)[C@@H](NC(=O)n2cc(Cc3cccc(F)c3)cn2)COc2ccc(OCCC(C)(C)O)cc21 [Example 21, (S)-4-(3-fluorobenzyl)-N-(7-(3-hydroxy-3-methylbutoxy)-5-methyl-4-oxo-2,3,4,5-tetrahydrobenzo[b][1,4]oxazepin-3-yl)-1H-pyrazole-1-carboxamide] | > 8.00 | > 8.00
